The nature of this assay: In vitro inhibition of binding towards of human wild-type p53 to GST-hdm2.

Square brackets hold non-standard residues; d marks the D form. Peptide text beside a SMILES is read from it. Trp(6-Cl) = N[C@@H](Cc1c[nH]c2cc(Cl)ccc12)C(=O)O; Pmp = N[C@@H](Cc1ccc(CP(=O)(O)O)cc1)C(=O)O; Ac3c = NC1(C(=O)O)CC1; Aib = CC(C)(N)C(=O)O

With `CSCC[C@H](NC(=O)[C@H](Cc1ccccc1)NC(C)=O)C(=O)NC(C)(C)C(=O)N[C@@H](Cc1ccc(CP(=O)(O)O)cc1)C(=O)N[C@@H](Cc1c[nH]c2cc(Cl)ccc12)C(=O)N[C@@H](CCC(=O)O)C(=O)NC1(C(=O)N[C@@H](CC(C)C)C(N)=O)CC1` (Ac-FM[Aib][Pmp][Trp(6-Cl)]E[Ac3c]L-NH2), the IC50 was determined as 5 nM. As for `CSCC[C@H](NC(=O)[C@H](Cc1ccccc1)NC(C)=O)C(=O)NC(C)(C)C(=O)N[C@@H](Cc1ccc(CP(=O)(O)O)cc1)C(=O)N[C@@H](C)C(=O)N[C@@H](CCC(=O)O)C(=O)NC1(C(=O)N[C@@H](CC(C)C)C(N)=O)CC1` (Ac-FM[Aib][Pmp]AE[Ac3c]L-NH2), the figure is > 2000 nM.

The IC50 is the concentration needed to halve the response being measured.

Values taken from ChEMBL document CHEMBL1133912, “Coupling of the antennapedia third helix to a potent antagonist of the p53/hdm2 protein-protein interaction” (Bioorg Med Chem Lett, 2001).
